Results published in patent publication US20240109863A1, “2-PYRIDONE DERIVATIVE, AND PREPARATION METHOD THEREFOR AND PHARMACEUTICAL APPLICATION THEREOF” (KPC PHARMACEUTICALS, INC, priority 2020, published 2024).

Tests used:
[1] = target: T1, THRβ (Homo sapiens, UniProt P10828); test: THRβ binding assay (time-resolved FRET coactivator peptide recruitment); assay type: biochemical; conditions: THRβ-LBD/RXRα, SRC2-2 coactivator peptide recruitment, 4 hours at room temperature
T1 construct: RXRα and THRβ-LBD Eu-anti-GST antibody with GST tag

[2] = target: T2, THRα (Homo sapiens, UniProt P10827); test: THRα binding assay (as the THRβ assay, THRβ replaced with THRα); assay type: biochemical
T2 construct: GST

[3] = In vivo pharmacokinetics in mice; conditions: male ICR mice, intragastric, single dose 3 mg/Kg
Method: Mice were used as test animals, and intragastrically administered with the compounds of Example 1 and Example 46, and then the drug concentrations in plasma at different time points were measured. The pharmacokinetic performance of the compounds of the present invention in mice was studied, and the drug metabolism characteristics were evaluated. In the example, healthy adult male ICR mice with similar body weight were selected, and orally administered with drugs once at a dose of 3.0 mg/kg. Whole blood was collected before the administration and 1 h, 2 h, 4 h, 6 h, 8 h, 12 h, 24 h and 48 h after the administration, respectively. LC/MS/MS method was established to determine the concentrations of prototype drugs in plasma samples. The main pharmacokinetic parameters were calculated using WinNonlin 6.3 NCA model.
Experimental drug: the compounds obtained in Example 1 and Example 46.
Experimental animals: 9 healthy adult male ICR mice, equally divided into 3 groups, 3 mice in each group, purchased from Shanghai Xipu'er-Bikai Experimental Animal Co., Ltd., with an animal certificate number: SOCK (Shanghai) 2018-0006 2018 0006 010467.
Preparation of drug: A certain amount of the compounds of Example 1 and Example 46 were accurately weighed, put into a 15 ml sample tube, wetted by 5 μL of Tween 80, and then added with 5.2 mL of 2% hydroxypropyl methylcellulose (HPMC) solution. The mixture was sonicated and mixed by vortex to obtain a homogeneous suspension. The drugs were freshly prepared just before use.
Administration: After fasting overnight, ICR mice were intragastrically administered with the drugs at a dose of 3.0 mg/kg.
Operation: The mice were intragastrically administered with the compounds of Example 1 and Example 46. Whole blood was collected before the administration and 1 h, 2 h, 4 h, 6 h, 8 h, 12 h, 24 h and 48 h after the administration, then anticoagulated with heparin sodium, and centrifuged at 4° C. for 5 min. Plasma was separated, and stored at −80° C. for determination.
Determination of the contents of the compounds to be tested in the mice plasma after intragastric administration of drugs: 12.5 μL of the mice plasma to be tested at each time point after the administration of the compounds of Example 1 and Example 46 were taken respectively, mixed in pairs, and added with 100 μL of the internal standard solution and 125 μL of methanol. The mixture was mixed by vortex for 2 min, and centrifuged at 13000 rpm for 10 min at 4° C. The supernatant was taken for LC-MS/MS analysis.

[4] = preclinical toxicology and data of phase I; cited from earlier work
[5] = data of phase II, cited from earlier work

T2 sequence (P10827 1-410 isoform P10827-2, other chains not shown): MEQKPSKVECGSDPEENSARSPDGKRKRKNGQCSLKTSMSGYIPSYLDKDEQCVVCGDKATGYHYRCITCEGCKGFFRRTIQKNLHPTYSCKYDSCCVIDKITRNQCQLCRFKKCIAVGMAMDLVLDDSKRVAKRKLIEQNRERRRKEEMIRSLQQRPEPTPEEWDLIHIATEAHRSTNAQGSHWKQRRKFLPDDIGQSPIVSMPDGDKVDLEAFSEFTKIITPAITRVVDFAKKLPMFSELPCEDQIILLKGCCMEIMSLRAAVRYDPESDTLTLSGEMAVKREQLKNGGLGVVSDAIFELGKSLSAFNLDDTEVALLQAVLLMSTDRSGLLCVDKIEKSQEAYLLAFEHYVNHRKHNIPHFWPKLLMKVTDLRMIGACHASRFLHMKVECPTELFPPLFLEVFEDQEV
T2 sequence (P19793 whole entry partner, other chains not shown): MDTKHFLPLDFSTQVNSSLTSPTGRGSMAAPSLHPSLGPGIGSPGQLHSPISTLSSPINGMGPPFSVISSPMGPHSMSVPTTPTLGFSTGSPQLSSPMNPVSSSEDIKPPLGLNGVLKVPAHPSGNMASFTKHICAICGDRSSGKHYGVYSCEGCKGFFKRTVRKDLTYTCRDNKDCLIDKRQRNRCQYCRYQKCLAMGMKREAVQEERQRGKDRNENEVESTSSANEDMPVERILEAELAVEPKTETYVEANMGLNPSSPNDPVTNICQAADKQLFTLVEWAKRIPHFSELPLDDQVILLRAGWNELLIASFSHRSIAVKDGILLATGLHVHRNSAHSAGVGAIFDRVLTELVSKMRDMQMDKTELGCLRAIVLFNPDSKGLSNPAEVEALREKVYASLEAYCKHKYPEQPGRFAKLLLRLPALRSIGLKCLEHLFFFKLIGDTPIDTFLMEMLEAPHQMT
T1 sequence (P10828 217-461 limits assumed, other chains not shown): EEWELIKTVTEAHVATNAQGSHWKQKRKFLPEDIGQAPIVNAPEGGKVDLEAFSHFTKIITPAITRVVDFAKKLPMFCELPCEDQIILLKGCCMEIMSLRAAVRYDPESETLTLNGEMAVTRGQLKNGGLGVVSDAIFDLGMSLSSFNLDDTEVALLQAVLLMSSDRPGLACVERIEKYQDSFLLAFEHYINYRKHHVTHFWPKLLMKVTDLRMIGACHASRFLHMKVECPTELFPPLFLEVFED
T1 sequence (P19793 whole entry partner, other chains not shown, the tested form may be a part): as the sequence (P19793 whole entry partner, other chains not shown) above

Compound | EC50 [1] | EC50 ([2]; THRα in place of THRβ) | THRα/β selectivity (fold) ([2]; ratio of THRα EC50 to THRβ EC50) | Peak plasma concentration [3] | Area of curve ([3]; plasma) | half-life ([3]; mouse, po, plasma) | LDL cholesterol, triglycerides and lipoproteins [4] | severe cases ([5]; not related to treatment) | adverse effects (AEs) mild [5] | adverse effects (AEs) moderate [5]
CC(C)n1cc(Oc2c(Cl)cc(-n3nc(C#N)c(=O)[nH]c3=O)cc2Cl)ccc1=O [Example 1, 2-(3,5-Dichloro-4-((1-isopropyl-6-oxo-1,6-dihydropyridin-3-yl)oxy)phenyl)-3,5-dioxo-2,3,4,5-tetrahydro-1,2,4-triazine-6-carbonitrile] | 11 nM | 49 nM | 4.5 fold | 54.0 ng/mL | 0.5352 µg·h/mL | 5.6 h |  |  |  | 
CC(C)c1cc(Oc2c(Cl)cc(-n3nc(C#N)c(=O)[nH]c3=O)cc2Cl)n[nH]c1=O [Control compound 2, MGL-3196] |  |  |  |  |  |  | significantly reduce | 3 | 85% | 15%
